Laboratory results published in ChEMBL document CHEMBL1811817, “Molecular docking studies and in vitro screening of new dihydropyridine derivatives as human MRP1 inhibitors” (Bioorg Med Chem, 2011).

Key:
MRP1 [1] = molecular target: T1, MRP1 (Homo sapiens, UniProt P33527); assay: Inhibition of human MRP1 expressed in Spodoptera frugiperda Sf9 cells assessed as decrease in NEM-GS induced vanadate-sensitive ATPase activity measured by generation of inorganic phosphate at 30 uM by spectrophotometry in presence of glutathione; settings: Spodoptera frugiperda Sf9 cells expressing human MRP1, probe NEM-GS
[2] = molecular target: T2, Multidrug resistance-associated protein 1 (Homo sapiens, UniProt P33527); assay: Inhibition of vanadate-sensitive ATPase basal activity of human MRP1 expressed in Sf9 cells assessed as generation of inorganic phosphate at 10 uM by spectrophotometry in presence of glutathione; settings: sf9, 10 µM
[3] = molecular target: T2, Multidrug resistance-associated protein 1; assay: Inhibition of human MRP1 expressed in Spodoptera frugiperda Sf9 cells assessed as inhibition of NEM-GS-induced vanadate-sensitive ATPase activity measured by generation of inorganic phosphate by spectrophotometry in presence of glutathione
MRP1 [4] = molecular target: T1, MRP1; assay: Inhibition of human MRP1 expressed in Spodoptera frugiperda Sf9 cells assessed as decrease in NEM-GS induced vanadate-sensitive ATPase activity measured by generation of inorganic phosphate at 100 uM by spectrophotometry in presence of glutathione; settings: Spodoptera frugiperda Sf9 cells expressing human MRP1, probe NEM-GS

T2 sequence (P33527 whole entry): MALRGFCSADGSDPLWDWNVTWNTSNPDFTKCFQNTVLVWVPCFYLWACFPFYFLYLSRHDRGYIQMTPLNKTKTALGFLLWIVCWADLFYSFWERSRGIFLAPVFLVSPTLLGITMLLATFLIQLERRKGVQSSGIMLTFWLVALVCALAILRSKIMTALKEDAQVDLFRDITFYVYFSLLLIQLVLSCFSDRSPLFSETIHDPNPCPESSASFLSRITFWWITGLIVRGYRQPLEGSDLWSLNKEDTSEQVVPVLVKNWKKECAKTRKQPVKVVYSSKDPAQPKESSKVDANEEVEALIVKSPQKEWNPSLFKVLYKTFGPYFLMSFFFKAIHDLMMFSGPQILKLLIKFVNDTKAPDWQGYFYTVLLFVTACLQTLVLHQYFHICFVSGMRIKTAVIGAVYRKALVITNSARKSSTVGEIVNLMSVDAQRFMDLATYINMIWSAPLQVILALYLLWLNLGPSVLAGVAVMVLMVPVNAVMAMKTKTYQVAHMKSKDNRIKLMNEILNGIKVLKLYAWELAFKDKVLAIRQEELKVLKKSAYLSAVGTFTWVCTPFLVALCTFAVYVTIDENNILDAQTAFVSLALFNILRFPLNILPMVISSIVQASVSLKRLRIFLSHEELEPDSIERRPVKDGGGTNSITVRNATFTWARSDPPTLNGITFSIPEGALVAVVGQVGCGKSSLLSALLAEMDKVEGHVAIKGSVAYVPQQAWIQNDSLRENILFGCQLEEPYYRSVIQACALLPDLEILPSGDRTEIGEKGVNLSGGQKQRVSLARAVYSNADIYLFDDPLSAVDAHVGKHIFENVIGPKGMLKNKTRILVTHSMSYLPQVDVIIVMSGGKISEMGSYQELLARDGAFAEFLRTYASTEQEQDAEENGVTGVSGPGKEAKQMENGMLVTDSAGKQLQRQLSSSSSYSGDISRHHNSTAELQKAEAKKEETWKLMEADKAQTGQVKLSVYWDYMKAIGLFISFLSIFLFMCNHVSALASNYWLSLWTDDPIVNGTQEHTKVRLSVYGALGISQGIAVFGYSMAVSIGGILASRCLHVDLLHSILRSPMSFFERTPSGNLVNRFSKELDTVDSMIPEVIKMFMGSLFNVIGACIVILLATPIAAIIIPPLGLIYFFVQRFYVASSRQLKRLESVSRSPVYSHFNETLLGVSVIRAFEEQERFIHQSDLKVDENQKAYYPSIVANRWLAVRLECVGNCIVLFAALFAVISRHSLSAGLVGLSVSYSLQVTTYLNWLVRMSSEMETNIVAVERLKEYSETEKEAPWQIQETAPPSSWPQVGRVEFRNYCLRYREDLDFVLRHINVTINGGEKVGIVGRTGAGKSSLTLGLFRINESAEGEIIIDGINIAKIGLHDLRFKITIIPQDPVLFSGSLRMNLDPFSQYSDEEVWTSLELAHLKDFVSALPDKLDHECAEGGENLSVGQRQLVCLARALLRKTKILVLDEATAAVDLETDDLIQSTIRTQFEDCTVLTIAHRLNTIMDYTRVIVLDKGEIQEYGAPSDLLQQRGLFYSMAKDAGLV
T1 sequence (P33527 whole entry): as above

Row | SMILES | inhibition (INH) [3] | further results
1 | CC1=C(C(=O)Nc2ccccc2)C(c2ccco2)C(C(=O)Nc2ccccc2)=C(C)N1 | – | inhibition at 30 µM (MRP1 [1]): 52.8%; inhibition (INH) [2]: Active
2 | CC1=C(C(=O)Nc2ccccc2)C(c2ccccn2)C(C(=O)Nc2ccccc2)=C(C)N1 | Not Active | –
3 | CC1=C(C(=O)Nc2ccccc2)C(c2cccs2)C(C(=O)Nc2ccccc2)=C(C)N1 | Not Active | –
4 | CC1=C(C(=O)Nc2ccccc2)C(c2ncc[nH]2)C(C(=O)Nc2ccccc2)=C(C)N1 | Not Active | –
5 | CC1=C(C(=O)Nc2ccccc2)C(c2ccc[nH]2)C(C(=O)Nc2ccccc2)=C(C)N1 | Not Active | –
6 | CC1=C(C(=O)Nc2ccccc2)C(c2ccc(Cl)cc2)C(C(=O)Nc2ccccc2)=C(C)N1 | Not Active | –
7 | CC1=C(C(=O)Nc2ccccn2)C(c2ccco2)C(C(=O)Nc2ccccn2)=C(C)N1 | Not Active | –
8 | CC1=C(C(=O)Nc2ccccn2)C(c2ncc[nH]2)C(C(=O)Nc2ccccn2)=C(C)N1 | Not Active | –
9 | CC1=C(C(=O)Nc2ccccn2)C(c2ccc[nH]2)C(C(=O)Nc2ccccn2)=C(C)N1 | – | inhibition at 100 µM (MRP1 [4]): 78%; inhibition at 30 µM (MRP1 [1]): 69.8%; inhibition (INH) [2]: Active
10 | CC1=C(C(=O)Nc2ccc(C)cc2)C(c2ncc[nH]2)C(C(=O)Nc2ccc(C)cc2)=C(C)N1 | Not Active | –
